System: SARS-CoV2 original Wuhan strain, Alpha, Delta and Omicron viruses
Test: Replication of SARS-CoV-2 circulating forms in pulmonary A549-ACE2 cells
Format: cell-based
Conditions: Severe acute respiratory syndrome coronavirus 2, read-out: IC50, block of viral replication of all variants

O=S(=O)(c1ccccc1)n1c(-c2cncc(-c3cc4cc(OCc5ccccc5)ccc4n3S(=O)(=O)c3ccccc3)c2)cc2cc(OCc3ccccc3)ccc21 [AB-00011778]
IC50: 500 to 1000 nM

From patent US20260158015A1 (Universite De Bordeaux, priority 2021, published 2026)
